Assay results published in the supplement of paper PMC10307832.

Assays:
Experiment in all cases: relative viability (nuclei count vs DMSO), 5 days (fraction); higher = more cells survive
[1] = compound: CS(=O)(=O)CCNCc1ccc(-c2ccc3ncnc(Nc4ccc(OCc5cccc(F)c5)c(Cl)c4)c3c2)o1 [Lapatinib] + CC(=O)Nc1cccc(-n2c(=O)n(C3CC3)c(=O)c3c(Nc4ccc(I)cc4F)n(C)c(=O)c(C)c32)c1 [Trametinib] (partner 0.02 µM)
Summary of the method: (§1)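 After 5 days of treatment, lung cancer cells in 1536-well plates were fixed and stained in a single step (final 0.05% Triton X-100, 1% formaldehyde, 1 ug/ml Hoechst) and their nuclei counted on 4× images. Treatment had been applied by pin tool the day after seeding as one drug alone or as a fixed anchor-drug dose with five library-drug doses (not always all listed) in √10 steps. Relative viability is the nuclei count of treated wells divided by that of vehicle wells, and values are medians of duplicate plates.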

[2] = compound: CC1=NC=CC(=C1)C2=CC=C(C=C2)CC(=O)NC3=CC=C(C=C3)C4=CN=CC=C4 [Wnt-C59] + Cc1cc(Nc2cc(N3CCN(C)CC3)nc(Sc3ccc(NC(=O)C4CC4)cc3)n2)n[nH]1 [Tozasertib] (partner 0.1 µM)
Summary of the method: as §1

[3] = compound: CC1=NC=CC(=C1)C2=CC=C(C=C2)CC(=O)NC3=CC=C(C=C3)C4=CN=CC=C4 [Wnt-C59] + CS(=O)(=O)N1CCN(Cc2cc3nc(-c4cccc5[nH]ncc45)nc(N4CCOCC4)c3s2)CC1 [Pictilisib] (partner 1 µM)
Summary of the method: as §1

[4] = compound: CC1=NC=CC(=C1)C2=CC=C(C=C2)CC(=O)NC3=CC=C(C=C3)C4=CN=CC=C4 [Wnt-C59] + Cc1nc(NC(=O)N2CCC[C@H]2C(N)=O)sc1-c1ccnc(C(C)(C)C(F)(F)F)c1 [Alpelisib] (partner 2 µM)
Summary of the method: as §1

Row | Cell Line | relative viability ([1]; first compound 0.02 µM) | relative viability ([1]; first compound 0.06325 µM) | relative viability ([1]; first compound 0.2 µM) | relative viability ([1]; first compound 0.6325 µM) | relative viability ([1]; first compound 2 µM) | relative viability ([2]; first compound 0.001 µM) | relative viability ([2]; first compound 0.01 µM) | relative viability ([2]; first compound 0.03162 µM) | relative viability ([2]; first compound 0.1 µM) | relative viability ([3]; first compound 0.001 µM) | relative viability ([3]; first compound 0.01 µM) | relative viability ([3]; first compound 0.03162 µM) | relative viability ([3]; first compound 0.1 µM) | relative viability ([4]; first compound 0.001 µM) | relative viability ([4]; first compound 0.01 µM) | relative viability ([4]; first compound 0.03162 µM) | relative viability ([4]; first compound 0.1 µM)
1 | 201T | 0.735 | 0.719 | 0.694 | 0.726 | 0.651 | 0.96 | 0.923 | 1.05 | 0.952 | 0.704 | 0.676 | 0.676 | 0.698 | 1.06 | 1.01 | 0.99 | 1
2 | A549 |  |  |  |  |  |  |  |  |  | 0.534 | 0.541 | 0.408 | 0.484 | 0.978 | 0.75 | 0.712 | 0.682
3 | A-427 | 0.724 | 0.631 | 0.716 | 0.788 | 0.691 | 0.217 | 0.183 | 0.211 | 0.243 | 0.756 | 0.554 | 0.717 | 0.799 | 1.07 | 1 | 1.14 | 1.08
4 | ABC-1 |  |  |  |  |  | 0.15 | 0.166 | 0.164 | 0.19 | 0.685 | 0.817 | 0.76 | 0.6 | 1.26 | 1.01 | 0.718 | 0.876
5 | BEN | 1.05 | 0.898 | 1.05 | 0.931 | 0.999 | 0.478 | 0.474 | 0.497 | 0.501 | 0.524 | 0.667 | 0.613 | 0.596 | 1.11 | 0.993 | 1.37 | 0.957
6 | CAL-12T | 0.308 | 0.257 | 0.313 | 0.29 | 0.203 | 0.47 | 0.335 | 0.349 | 0.263 | 0.259 |  | 0.436 | 0.511 | 1.25 | 1.32 | 1.31 | 1.1
7 | COR-L23 | 0.408 | 0.555 | 0.68 | 0.651 | 0.551 | 0.202 | 0.237 | 0.233 | 0.19 | 0.745 | 0.653 | 0.818 | 0.79 | 0.776 | 0.752 | 0.775 | 0.725
8 | COR-L 105 | 0.433 | 0.419 | 0.402 | 0.363 | 0.393 | 0.297 | 0.332 | 0.371 | 0.437 | 0.368 | 0.315 | 0.413 | 0.446 | 1.19 | 1.03 | 0.93 | 0.78
9 | Calu-6 |  |  |  |  |  |  |  |  |  | 0.856 | 0.973 | 0.998 | 0.873 | 0.898 | 0.945 | 1.15 | 0.938
10 | ChaGo-K-1 | 0.868 | 0.918 | 0.9 | 0.868 | 0.894 | 0.221 | 0.233 | 0.242 | 0.223 | 0.461 |  | 0.862 | 1.02 |  |  |  | 
11 | EBC-1 |  |  |  |  |  |  |  |  |  | 0.444 | 0.349 | 0.299 | 0.418 | 0.91 | 0.852 | 0.755 | 0.79
12 | EKVX |  | 0.29 | 0.315 | 0.249 | 0.147 | 0.437 | 0.357 | 0.406 | 0.402 | 0.428 | 0.362 | 0.394 | 0.344 | 0.931 | 0.783 | 0.73 | 0.668
13 | EMC-BAC-2 |  | 0.526 |  | 0.83 | 0.789 | 0.341 | 0.274 | 0.322 | 0.306 | 0.5 | 0.491 | 0.463 | 0.453 | 0.684 | 0.607 | 0.672 | 0.65
14 | EPLC-272H |  | 0.25 | 0.281 | 0.246 | 0.293 | 0.297 | 0.25 | 0.362 | 0.276 | 0.366 | 0.265 | 0.343 | 0.338 | 0.96 | 0.861 | 0.976 | 0.921
15 | H3255 |  | 0.49 | 0.623 | 0.516 | 0.25 | 0.715 | 0.616 | 0.626 | 0.63 | 0.565 | 0.359 | 0.431 | 0.49 | 0.798 | 0.556 | 0.68 | 0.596
16 | HARA | 0.476 | 0.316 | 0.331 | 0.36 | 0.304 | 0.103 | 0.135 | 0.151 | 0.088 | 0.32 | 0.523 | 0.402 | 0.6 | 0.773 | 0.645 | 0.959 | 0.787
17 | HCC-15 |  | 0.243 | 0.386 | 0.312 | 0.341 | 0.407 | 0.389 | 0.322 | 0.44 | 0.74 | 0.711 | 0.732 | 0.723 | 0.962 | 0.952 | 0.904 | 0.868
18 | HCC-44 | 1.03 | 1.05 | 1.16 | 1.04 | 0.807 | 1.12 | 0.909 | 0.976 | 0.864 | 0.597 | 0.639 | 0.621 | 0.772 | 0.792 | 0.817 | 0.865 | 0.892
